This is an account of results in patent publication US20120020915A1, “Compounds and Methods for Treating Cancer and Diseases of the Central Nervous System” (QUEENS UNIVERSITY AT KINGSTON, priority 2007, published 2012).

Structures can show the parent of a compound that is named as a salt. Where two headings read alike, the source gives them in different places. Where only a bound is given, the exact number is not on record here.

One assay addresses T1, HO-2 (rat brain) (Rattus norvegicus, UniProt P23711).
T1 construct: brain microsomes were used as a source of HO-2; from tissue; host or cells: brain microsomal fraction of adult male Sprague-Dawley rats
T1 sequence (P23711 1-315): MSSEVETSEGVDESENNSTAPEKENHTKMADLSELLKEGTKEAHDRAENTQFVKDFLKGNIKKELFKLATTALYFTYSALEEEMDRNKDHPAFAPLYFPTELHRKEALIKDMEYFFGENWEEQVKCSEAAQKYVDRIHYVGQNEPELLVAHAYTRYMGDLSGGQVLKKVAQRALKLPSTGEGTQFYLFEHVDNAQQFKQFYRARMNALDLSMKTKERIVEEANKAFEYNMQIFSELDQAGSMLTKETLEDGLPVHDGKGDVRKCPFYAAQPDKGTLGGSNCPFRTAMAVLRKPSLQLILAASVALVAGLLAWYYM
As to the kind of experiment: HO enzymatic activity, rat brain microsomal fraction (CO formation from methemalbumin). The class given is biochemical. The note with it: CO formation from methemalbumin, mean ± SD of replicate experiments. The protocol: (§1) Incubations for HO activity analysis were done under conditions for which the rate of CO formation (pmol CO×min^−1×mg protein^−1) was linear with respect to time and microsomal protein concentration. Briefly, reaction mixtures (150 μL) consisting of 100 mM phosphate buffer (pH 7.4), 50 μM methemalbumin, and 1 mg/mL protein were pre-incubated with the inhibitors at final concentrations ranging from 0.1-100 μM for 10 minutes at 37° C. Reactions were initiated by adding NADPH at a final concentration of 1 mM and incubations were performed for an additional 15 minutes at 37° C.
(§2) Incubations for HO activity analysis were done under conditions for which the rate of CO formation (pmol CO/mg protein/minute) was linear with respect to time and microsomal protein concentration. Briefly, reaction mixtures (150 μL) consisting of 100 mM phosphate buffer (pH 7.4), 50 μM methemalbumin and 1 mg/mL protein were pre-incubated with the vehicle (ethanol or water in which the inhibitors were dissolved), or inhibitors at final concentrations ranging from 0.1-1000 μM for 10 minutes at 37° C. Reactions were initiated by adding β-NADPH at a final concentration of 1 mM and incubations were carried out for an additional 15 minutes at 37° C. Reactions were stopped by instantly freezing the reaction mixture on pulverized dry ice and CO formation was measured by gas chromatography using a TA 3000R Process Gas Analyzer (Trace Analytical/Ametek, Newark, Del., USA).
(§3) The values on the abscissa represent the decimal logarithm of the inhibitor's concentration (in μM), whereas the values of the activity on the ordinate are expressed as a percentage of the control experiments without inhibitor.
(§4) The IC50 values for the replicate experiments were employed to generate the reported standard deviation value.

The next assay concerns the target T2, HO-1 (rat spleen) (Rattus norvegicus, UniProt P06762).
T2 construct: Spleen microsomes were used as a source of HO-1; from tissue; host or cells: spleen microsomal fraction of adult male Sprague-Dawley rats
T2 sequence (P06762 1-289): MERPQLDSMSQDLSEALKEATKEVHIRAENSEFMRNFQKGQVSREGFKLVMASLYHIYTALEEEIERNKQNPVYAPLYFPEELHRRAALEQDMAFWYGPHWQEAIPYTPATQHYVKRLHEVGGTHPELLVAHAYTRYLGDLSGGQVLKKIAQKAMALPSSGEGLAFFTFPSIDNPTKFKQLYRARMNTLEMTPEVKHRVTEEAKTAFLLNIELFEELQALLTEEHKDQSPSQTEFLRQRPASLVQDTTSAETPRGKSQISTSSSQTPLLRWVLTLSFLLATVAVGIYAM
As to the kind of experiment: HO enzymatic activity, rat spleen microsomal fraction (CO formation from methemalbumin). The class given is biochemical. The conditions noted are these: CO formation from methemalbumin, mean ± SD of replicate experiments. Here is the method:
as §1, §2, §3, §4

[1] abbreviates: read-out: IC50 HO-1 (rat spleen/μM).
[2] abbreviates: read-out: IC50 HO-2 (rat brain)/μM).

`Cc1nccn1CC(=O)CCc1ccc(Br)cc1` [QC-61, 4-(4-bromophenyl)-1-[(2-methyl)-1H-imidazol-1-yl]butan-2-one hydrochloride]: the IC50 against HO-2 (rat brain) (IC50 HO-2 (rat brain)/μM)) and on HO-1 (rat spleen) (IC50 HO-1 (rat spleen/μM)) was over 100 µM each time.
As to `O=C(CCc1ccc(Br)cc1)Cn1cnc2ccccc21` [QC-62, 4-(4-bromophenyl)-1-(1H-benzimidazol-1-yl)butan-2-one hydrochloride], the IC50 at HO-2 (rat brain) (IC50 HO-2 (rat brain)/μM)) and against HO-1 (rat spleen) (IC50 HO-1 (rat spleen/μM)) was over 100 µM throughout.
Regarding `O=C(Cn1ccnc1)NCc1ccccc1` [QC-63, N-benzyl-2-(1H-imidazol-1-yl)-acetamide hydrochloride], the IC50 was over 100 µM at HO-2 (rat brain) (IC50 HO-2 (rat brain)/μM)) and 12 ± 5 µM at HO-1 (rat spleen) (setting [1]).
Regarding `O=C(O)Cn1ccnc1` [QC-66, Imidazol-1-yl-acetic acid], the IC50 at HO-2 (rat brain) (setting [2]) and at HO-1 (rat spleen) (setting [1]) was over 100 µM each time.
Regarding `NCCc1c[nH]cn1` [QC-67, Histamine dihydrochloride, reference compound], the IC50 on HO-2 (rat brain) (setting [2]) and on HO-1 (rat spleen) (setting [1]) was over 100 µM throughout.
For the compound `N[C@@H](Cc1c[nH]cn1)C(=O)O` [QC-68, L-histidine hydrochloride monohydrate, reference compound], the IC50 at HO-2 (rat brain) (setting [2]) and on HO-1 (rat spleen) (setting [1]) was over 100 µM throughout.
For `CSCC[C@@H](N)C(=O)O` [QC-69, D-methionine, reference compound], the IC50 on HO-2 (rat brain) (setting [2]) and on HO-1 (rat spleen) (setting [1]) was over 100 µM each time.
Take `Clc1ccc(CCC2(Cn3ccnc3)OCCCO2)cc1` [QC-70, 2-[2-(4-chlorophenyl)ethyl]-2-[(1H-imidazol-1-yl)methyl]-1,3-dioxane hydrochloride]: the IC50 was over 100 µM at HO-2 (rat brain) (IC50 HO-2 (rat brain)/μM)) and 20 ± 4 µM on HO-1 (rat spleen) (IC50 HO-1 (rat spleen/μM)).
Take `Clc1ccc(CCC2(Cn3ccnc3)O[C@H]3CCCC[C@H]3O2)cc1` (stereo partly drawn) [QC-71, 1-{2-[2-(4-Chlorophenyl)-ethyl]-hexahydrobenzo[1,3]dioxol-2-ylmethyl}-1H-imidazole]: the IC50 on HO-2 (rat brain) (IC50 HO-2 (rat brain)/μM)) is over 100 µM; on HO-1 (rat spleen) (IC50 HO-1 (rat spleen/μM)), 69 ± 7 µM.
Taken in the same sequence, the figures for `COc1ccc(CCC(=O)Cn2ccnc2)cc1` [QC-72, 1-(1H-imidazol-1-yl)-4-(4-methoxyphenyl)-2-butanone hydrochloride] were 29 ± 19 µM and 2.2 ± 0.9 µM.
Taken in the same sequence, the figures for `O=C(CCn1ccnc1)c1ccccc1O` [QC-75, 1-(2-hydroxyphenyl)-3-imidazol-1-yl-propan-1-one] were over 100 µM and 25 ± 12 µM.
Regarding `O=C(n1ccnc1)C(F)(F)F` [QC-77, N-trifluoroacetylimidazole], the IC50 at HO-2 (rat brain) (setting [2]) and at HO-1 (rat spleen) (setting [1]) was over 100 µM each time.
Turning to `CN(C)CCC(=O)c1ccc(Cl)cc1` [QC-84, 1-(4-chlorophenyl)-3-dimethylamino-propan-1-one], the IC50 against HO-2 (rat brain) (IC50 HO-2 (rat brain)/μM)) and against HO-1 (rat spleen) (IC50 HO-1 (rat spleen/μM)) was over 100 µM each time.
Regarding `O=C(CCn1ccnc1)c1ccc(Cl)cc1` [QC-85, 1-(4-chlorophenyl)-3-imidazol-1-yl-propan-1-one hydrochloride], the figures for the IC50 on HO-2 (rat brain) (IC50 HO-2 (rat brain)/μM)) and at HO-1 (rat spleen) (IC50 HO-1 (rat spleen/μM)) were over 100 µM and 32 ± 3 µM, respectively.
Turning to `c1cn(CCCCn2ccnc2)cn1` [QC-88, 1,4-bis-(1H-imidazol-1-yl)butane dihydrochloride], the IC50 on HO-2 (rat brain) (setting [2]) and on HO-1 (rat spleen) (setting [1]) was over 100 µM throughout.
`c1cn(CCCCCCn2ccnc2)cn1` [QC-89, 1,6-bis-(1H-imidazol-1-yl)hexane dihydrochloride]: the IC50 on HO-2 (rat brain) (setting [2]) and at HO-1 (rat spleen) (setting [1]) was over 100 µM each time.
With `c1ccc(CCC2(Cn3cccn3)OCCO2)cc1` [QC-95, 2-phenylethyl-2-[(1H-pyrazole-1-yl)methyl]-1,3-dioxolane hydrochloride], the IC50 at HO-2 (rat brain) (setting [2]) and at HO-1 (rat spleen) (setting [1]) was over 100 µM each time.
Take `O=C(CCc1ccccc1)C[n+]1ccncc1` [QC-97, 1-(4-phenyl-2-oxo-butyl)-pyrazin-1-ium bromide]: the IC50 is over 100 µM on HO-2 (rat brain) (setting [2]) and 163 ± 10 µM on HO-1 (rat spleen) (setting [1]).
With `O=C(c1ccc(-n2ccnc2)cc1)C1CC1` [QC-98, Cyclopropyl-(4-imidazol-1-yl-phenyl)methanone hydrochloride], the IC50 on HO-2 (rat brain) (setting [2]) and on HO-1 (rat spleen) (setting [1]) was over 100 µM each time.
On to `CCCC(=O)n1ccnc1` [QC-100, N-butyrylimidazole], for which the IC50 at HO-2 (rat brain) (setting [2]) and on HO-1 (rat spleen) (setting [1]) was over 100 µM throughout.
In the case of `O=C(NCCCn1ccnc1)Nc1ccccc1` [QC-107, 1-(3-Imidazol-1-yl-propyl)-3-phenyl-urea], the IC50 on HO-2 (rat brain) (setting [2]) and on HO-1 (rat spleen) (setting [1]) was over 100 µM in each case.
Consider `O=C(NCCCn1ccnc1)c1ccccc1` [QC-109, N-(3-Imidazol-1-yl-propyl)-benzamide], for which the IC50 on HO-2 (rat brain) (setting [2]) and on HO-1 (rat spleen) (setting [1]) was over 100 µM in each case.
Take `CCOC(=O)c1nccn1CC(=O)CCc1ccccc1` [QC-110, 1-(2-Oxo-4-phenyl-butyl)-1H-imidazole-2-carboxylic acid ethyl ester hydrochloride]: the IC50 against HO-2 (rat brain) (IC50 HO-2 (rat brain)/μM)) and against HO-1 (rat spleen) (IC50 HO-1 (rat spleen/μM)) was over 100 µM in each case.
`CSc1nccn1CC(=O)CCc1ccccc1` [QC-113, 1-(2-Methylsulfanyl-imidazol-1-yl)-4-phenyl-butan-2-one]: the IC50 at HO-2 (rat brain) (setting [2]) and on HO-1 (rat spleen) (setting [1]) was over 100 µM in each case.
For `O=C(CCc1ccccc1)Cn1ncnn1` [QC-117, 4-Phenyl-1-tetrazol-2-yl-butan-2-one hydrochloride], the IC50 turned out to be 37 ± 25 µM on HO-2 (rat brain) (setting [2]) and 9.6 ± 0.2 µM at HO-1 (rat spleen) (IC50 HO-1 (rat spleen/μM)).
On to `O=C(CCc1ccccc1)Cn1cnnn1` [QC-118, 4-Phenyl-1-tetrazol-1-yl-butan-2-one hydrochloride], for which the IC50 on HO-2 (rat brain) (setting [2]) was determined as 20 ± 10 µM; against HO-1 (rat spleen) (IC50 HO-1 (rat spleen/μM)), 2.6 ± 0.9 µM.
`CCCCn1ccnc1` [QC-122, 1-Butyl-1H-imidazole]: the IC50 at HO-2 (rat brain) (setting [2]) and on HO-1 (rat spleen) (setting [1]) was over 100 µM throughout.
As for `COC(=O)c1ncn(CC(=O)CCc2ccccc2)c1C(=O)OC` [QC-123, 1-(2-Oxo-4-phenyl-butyl)-1H-imidazole-4,5-dicarboxylic acid dimethyl ester hydrochloride], the IC50 against HO-2 (rat brain) (IC50 HO-2 (rat brain)/μM)) and against HO-1 (rat spleen) (IC50 HO-1 (rat spleen/μM)) was over 100 µM each time.
With `O=C(CCc1ccccc1)Cn1cnc(-c2ccccc2)c1` [QC-124, 4-Phenyl-1-(4-phenyl-imidazol-1-yl)-butan-2-one hydrochloride], the results for the IC50 at HO-2 (rat brain) (setting [2]) and at HO-1 (rat spleen) (setting [1]) were 145 ± 54 µM and 9 ± 2 µM, respectively.
Taken in the same sequence, the figures for `CS(=O)(=O)c1nccn1CC(=O)CCc1ccccc1` [QC-125, 1-(2-Methanesulfonyl-imidazol-1-yl)-4-phenyl-butan-2-one] were over 100 µM and over 100 µM.
`O=C(CCc1ccccc1)Cn1cnc([N+](=O)[O-])c1` [QC-127, 1-(4-Nitro-imidazol-1-yl)-4-phenyl-butan-2-one]: the IC50 at HO-2 (rat brain) (setting [2]) and on HO-1 (rat spleen) (setting [1]) was over 100 µM throughout.
For `O=C(CCc1ccccc1)Cn1cnc2ccccc21` [QC-128, 1-Benzoimidazol-1-yl-4-phenyl-butan-2-one], the IC50 at HO-2 (rat brain) (setting [2]) and on HO-1 (rat spleen) (setting [1]) was over 100 µM each time.
In the case of `O=C(CCc1ccccc1)Cn1nnc2ccccc21` [QC-131, 1-Benzotriazol-1-yl-4-phenyl-butan-2-one], the IC50 at HO-2 (rat brain) (setting [2]) and on HO-1 (rat spleen) (setting [1]) was over 100 µM each time.
On to `COC(=O)c1cn(CC(=O)CCc2ccccc2)cn1` [QC-133, 1-(2-Oxo-4-phenyl-butyl)-1H-imidazole-4-carboxylic acid methyl ester], for which the IC50 at HO-2 (rat brain) (setting [2]) and at HO-1 (rat spleen) (setting [1]) was over 100 µM throughout.
With `COC(=O)c1cncn1CC(=O)CCc1ccccc1` [QC-134, 3-(2-Oxo-4-phenyl-butyl)-3H-imidazole-4-carboxylic acid methyl ester], the results for the IC50 at HO-2 (rat brain) (setting [2]) and on HO-1 (rat spleen) (setting [1]) were over 100 µM and 55 ± 2 µM, respectively.
Taken in the same sequence, the figures for `COC(=O)c1ncn(CC(=O)CCc2ccccc2)n1` [QC-135, 1-(2-Oxo-4-phenyl-butyl)-1H-[1,2,4]triazole-3-carboxylic acid methyl ester] were over 100 µM and over 100 µM.
